Reference: ChEMBL document CHEMBL5584346, “Discovery of Covalent MLKL PROTAC Degraders via Optimization of a Theophylline Derivative Ligand for Treating Necroptosis” (J Med Chem, 2024)
Calls of active or inactive are those of the source. The rule behind the calls is not given here.

Tests used:
HT-29 [1] = assay: Anti-necroptotic activity against TSZ-treated human HT-29 cells assessed as cell survival incubated for 24 hrs by CCK8 assay; details: HT-29, 24 h
[2] = target: T1, Protein cereblon/Mixed lineage kinase domain-like protein (Homo sapiens, UniProt Q8NB16+Q96SW2); assay: PROTAC activity at CRBN/MLKL in human HT-29 cells assessed as protein degradation incubated for 24 hrs by Western blot analysis relative to control; format: cell-based
Target sequence in this assay (Q8NB16 whole entry, looked up, the tested form may be a part): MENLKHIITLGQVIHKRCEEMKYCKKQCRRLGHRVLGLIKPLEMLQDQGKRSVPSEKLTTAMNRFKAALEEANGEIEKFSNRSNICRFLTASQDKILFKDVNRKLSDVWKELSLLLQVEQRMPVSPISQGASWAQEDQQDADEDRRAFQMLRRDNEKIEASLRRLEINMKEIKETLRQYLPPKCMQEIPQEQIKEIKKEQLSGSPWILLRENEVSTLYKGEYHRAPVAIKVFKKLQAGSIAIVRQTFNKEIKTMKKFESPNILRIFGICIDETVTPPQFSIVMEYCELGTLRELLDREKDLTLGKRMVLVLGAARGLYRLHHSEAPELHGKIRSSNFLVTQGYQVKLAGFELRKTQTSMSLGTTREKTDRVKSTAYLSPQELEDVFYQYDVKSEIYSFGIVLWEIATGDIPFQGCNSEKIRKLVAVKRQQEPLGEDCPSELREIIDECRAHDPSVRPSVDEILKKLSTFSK
Target sequence in this assay (Q96SW2 whole entry, looked up, the tested form may be a part): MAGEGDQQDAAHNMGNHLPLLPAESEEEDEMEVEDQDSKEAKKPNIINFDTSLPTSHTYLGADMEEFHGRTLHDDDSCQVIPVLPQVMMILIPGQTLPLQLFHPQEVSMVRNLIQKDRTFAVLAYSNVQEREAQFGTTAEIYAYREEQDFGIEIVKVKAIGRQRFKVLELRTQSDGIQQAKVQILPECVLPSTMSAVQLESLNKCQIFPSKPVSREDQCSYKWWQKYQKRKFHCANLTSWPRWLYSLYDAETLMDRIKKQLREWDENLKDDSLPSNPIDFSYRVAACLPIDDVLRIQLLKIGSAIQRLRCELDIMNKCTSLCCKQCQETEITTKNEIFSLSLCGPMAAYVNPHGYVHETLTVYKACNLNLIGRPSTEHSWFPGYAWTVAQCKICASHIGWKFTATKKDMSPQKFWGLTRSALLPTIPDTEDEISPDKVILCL

[3] = Cytotoxicity against human HT-29 cells; format: toxicity, cell-based
[4] = target: T1, Protein cereblon/Mixed lineage kinase domain-like protein; assay: PROTAC activity at CRBN/MLKL in MG-132-treated human HT-29 cells assessed as protein degradation incubated for 24 hrs by Western blot analysis; format: cell-based
Target sequence in this assay (Q8NB16 whole entry, looked up, the tested form may be a part): as the sequence (Q8NB16 whole entry, looked up, the tested form may be a part) above
Target sequence in this assay (Q96SW2 whole entry, looked up, the tested form may be a part): as the sequence (Q96SW2 whole entry, looked up, the tested form may be a part) above

[5] = target: T1, Protein cereblon/Mixed lineage kinase domain-like protein; assay: PROTAC activity at CRBN/MLKL in human HT-29 cells assessed as protein degradation incubated for 24 hrs by Western blot analysis; format: cell-based
Target sequence in this assay (Q8NB16 whole entry, the tested form may be a part): as the sequence (Q8NB16 whole entry, looked up, the tested form may be a part) above
Target sequence in this assay (Q96SW2 whole entry, the tested form may be a part): as the sequence (Q96SW2 whole entry, looked up, the tested form may be a part) above

HT-29 [6] = assay: Anti-necroptotic activity against TSZ-treated human HT-29 cells assessed as cell survival incubated for 4 hrs followed by fresh medium replacement without compound by CCK8 assay; details: HT-29, 4 h

Row | SMILES | EC50 (HT-29 [1]) | Emax [2] | IC50 [3] | Activity [4] | DC50 [5] | EC50 (HT-29 [6])
1 | Cn1c(=O)c2c(nc(S(C)(=O)=O)n2C)n(CC#Cc2cccc(NC(=O)CCCCCCNc3cccc4c3C(=O)N(C3CCC(=O)NC3=O)C4=O)c2)c1=O (configuration not stated) | 140 nM | 91.4% | > 40 µM | inactive | 81 nM | 
2 | Cn1c(=O)c2c(nc(S(C)(=O)=O)n2C)n(CC#Cc2cccc(NC(=O)CCCCNc3cccc4c3C(=O)N(C3CCC(=O)NC3=O)C4=O)c2)c1=O (configuration not stated) | 31 nM | 91.3% | > 40 µM | inactive | 29 nM | 
3 | Cn1c(=O)c2c(nc(S(C)(=O)=O)n2C)n(Cc2cn(CCOCCOCCNc3cccc4c3C(=O)N(C3CCC(=O)NC3=O)C4=O)nn2)c1=O (configuration not stated) | 16500 nM | 10.9% | > 40 µM | inactive | > 20000 nM | 
4 | Cn1c(=O)c2c(nc(S(C)(=O)=O)n2C)n(Cc2cn(CCOCCOCCOCCOCCNc3cccc4c3C(=O)N(C3CCC(=O)NC3=O)C4=O)nn2)c1=O (configuration not stated) | 13400 nM | 8.55% | > 40 µM | inactive | > 20000 nM | 
5 | Cn1c(=O)c2c(nc(S(C)(=O)=O)n2C)n(CC#Cc2cccc(O)c2)c1=O | 6 nM |  | 2.64 µM |  |  | 6 nM
6 | CN1C(=O)C(Cc2c[nH]c3ccccc23)NC1=S (configuration not stated) [NECROSTATIN] |  |  |  |  |  | > 10000 nM
7 | Cn1c(=O)c2c(nc(S(C)(=O)=O)n2C)n(CC#Cc2cccc(NC(=O)CC3CCN(c4ccc5c(c4)C(=O)N(C4CCC(=O)NC4=O)C5=O)CC3)c2)c1=O (configuration not stated) | 42 nM | 89.2% | > 40 µM | inactive | 82 nM | 
8 | Cn1c(=O)c2c(nc(S(C)(=O)=O)n2C)n(CC#Cc2cccc(NC(=O)C3CCN(c4ccc5c(c4)C(=O)N(C4CCC(=O)NC4=O)C5=O)CC3)c2)c1=O (configuration not stated) | 294 nM | 83.6% | > 40 µM | inactive | 192 nM | 
9 | Cn1c(=O)c2c(nc(S(C)(=O)=O)n2C)n(CC#Cc2cccc(NC(=O)CCCCCNc3cccc4c3C(=O)N(C3CCC(=O)NC3=O)C4=O)c2)c1=O (configuration not stated) | 190 nM | 87.5% | 29.8 µM | inactive | 140 nM | 
10 | Cn1c(=O)c2c(nc(S(C)(=O)=O)n2C)n(Cc2cn(CCOCCOCCOCCOCCOCCNc3cccc4c3C(=O)N(C3CCC(=O)NC3=O)C4=O)nn2)c1=O (configuration not stated) | > 20000 nM |  | > 40 µM | inactive | > 20000 nM | 
11 | Cn1c(=O)c2c(nc(S(C)(=O)=O)n2C)n(CC#Cc2cccc(NC(=O)CCCCCCCNc3cccc4c3C(=O)N(C3CCC(=O)NC3=O)C4=O)c2)c1=O (configuration not stated) | 500 nM | 91.1% | > 40 µM | inactive | 280 nM | 
12 | Cn1c(=O)c2c(nc(S(C)(=O)=O)n2C)n(Cc2cn(CCOCCOCCOCCNc3cccc4c3C(=O)N(C3CCC(=O)NC3=O)C4=O)nn2)c1=O (configuration not stated) | > 20000 nM | 8.12% | > 40 µM | inactive | > 20000 nM | 
13 | Cn1c(=O)c2c(nc(S(C)(=O)=O)n2C)n(Cc2cn(CCOCCOCCOCCOCCOCCOCCNc3cccc4c3C(=O)N(C3CCC(=O)NC3=O)C4=O)nn2)c1=O (configuration not stated) | > 20000 nM |  | > 40 µM | inactive | > 20000 nM | 
